From PMC3674748, “High-level expression and characterization of a chimeric lipase from Rhizopus oryzae for biodiesel production” (Biotechnology for Biofuels, 2013)

Key:
mROL = target: T1, mROL (Rhizopus arrhizus, UniProt P61872); test: residual activity after heat treatment, pNPP assay; type: biochemical; conditions: turnover only; 1 h pre-incubation at 40 °C
T1 sequence (P61872 124-392): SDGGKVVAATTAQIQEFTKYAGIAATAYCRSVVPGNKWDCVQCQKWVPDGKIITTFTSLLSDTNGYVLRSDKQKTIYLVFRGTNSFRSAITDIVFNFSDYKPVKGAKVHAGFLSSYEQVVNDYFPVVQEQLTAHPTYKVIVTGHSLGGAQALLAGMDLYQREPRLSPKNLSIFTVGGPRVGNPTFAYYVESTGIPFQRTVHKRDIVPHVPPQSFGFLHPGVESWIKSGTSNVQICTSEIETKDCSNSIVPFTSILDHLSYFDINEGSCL

r28ROL = target: T2, r28ROL (Rhizopus arrhizus, UniProt P61872); test: interfacial kinetics, p-nitrophenol release from emulsified pNPP; type: biochemical; conditions: heterogeneous (emulsion) medium; free purified enzyme; value not given
T2 construct: Pichia pastoris GS115, secreted, purified; proROL without signal peptide cleaved Kex2-like; about 37 kDa on SDS-PAGE
T2 sequence (P61872 96-392): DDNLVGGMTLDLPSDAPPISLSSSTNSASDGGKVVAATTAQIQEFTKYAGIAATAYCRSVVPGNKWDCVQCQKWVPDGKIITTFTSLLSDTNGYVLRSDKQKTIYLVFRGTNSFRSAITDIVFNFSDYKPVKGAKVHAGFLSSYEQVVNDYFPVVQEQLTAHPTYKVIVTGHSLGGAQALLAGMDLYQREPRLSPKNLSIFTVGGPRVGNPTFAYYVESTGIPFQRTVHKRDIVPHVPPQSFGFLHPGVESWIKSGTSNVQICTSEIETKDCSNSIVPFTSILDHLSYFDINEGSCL

CCCCCCCCCCCCCCCC(=O)Oc1ccc([N+](=O)[O-])cc1 [p-nitrophenyl palmitate]
residual activity after heat treatment, pNPP assay (mROL): thermostability of the mature R. oryzae lipase by P. pastoris in this study | Km* (r28ROL): The kinetic parameters were determined using p-nitrophenyl palmitate (pNPP) as substrate.
